In brackets after ≈: the same amount, converted by molar mass. Some results are limits rather than exact numbers.

Common to all, as to format: functional
The species entered for assay [1] is Sus scrofa. In words: Porcine renal DHP-1 susceptibility.
The subject of assay [2] is Escherichia coli. Briefly: In vitro antimicrobial activity against Escherichia coli NIHJ JC2.
In assay [3] the test system is Pseudomonas aeruginosa. Briefly: In vitro antimicrobial activity against Pseudomonas aeruginosa AK 109.
For assay [4], the system named is Pseudomonas aeruginosa. Briefly: In vitro antimicrobial activity against ceftazidime resistant Pseudomonas aeruginosa AKR 17.
Assay [5] relates to Rattus norvegicus. Briefly: Epileptogenicity at 200 ug in rat intracerebroventricular assay.
Assay [6] concerns Staphylococcus epidermidis. In words: In vitro antimicrobial activity against methicillin resistant Staphylococcus epidermidis MB5181.
Assay [7] has as its system Staphylococcus aureus. Briefly: In vitro antimicrobial activity against Staphylococcus aureus 209P NIHJ JCI.
The test system of assay [8] is Staphylococcus aureus. In words: In vitro antimicrobial activity against methicillin resistant Staphylococcus aureus pMS520.

Broadly, the MIC is the smallest concentration in the dilution series that meets the test's criterion for growth inhibition. A high value points to a need for much substance. In assay [1], `CC(N)c1ccc([C@H]2C[C@H](SC3=C(C(=O)O)N4C(=O)[C@H]([C@@H](C)O)[C@H]4[C@H]3C)CN2)cc1` (stereo not given in full) came in with a Susceptibility of 0.55. The MIC is 0.025 µg/mL (≈ 0.0579 µM) in assay [2]; 0.78 µg/mL (≈ 1.81 µM) in assay [3]; 3.13 µg/mL (≈ 7.25 µM) in assay [4]; 0.78 µg/mL (≈ 1.81 µM) in assay [6]; under 0.006 µg/mL in assay [7]; 1.56 µg/mL (≈ 3.61 µM) in assay [8]. In addition, the Epileptogenicity in assay [5] amounted to 0.

Take `C[C@@H](O)[C@H]1C(=O)N2C(C(=O)O)=C(S[C@@H]3CN[C@@H](c4cccc(CN)c4)C3)[C@H](C)[C@H]12`: in assay [1], the Susceptibility is 0.16. The MIC in assay [2] is 0.1 µg/mL (≈ 0.24 µM); in assay [3], 0.78 µg/mL (≈ 1.87 µM); in assay [4], 6.25 µg/mL (≈ 15 µM); in assay [6] it was 3.13 µg/mL (≈ 7.5 µM); in assay [7], under 0.006 µg/mL; in assay [8] it was 1.56 µg/mL (≈ 3.74 µM). Also, in assay [5], the Epileptogenicity is 5.

Compound `CNCc1ccc([C@H]2C[C@H](SC3=C(C(=O)O)N4C(=O)[C@H]([C@@H](C)O)[C@H]4[C@H]3C)CN2)s1` yielded a Susceptibility in assay [1] of 0.35. The MIC in assay [2] was 0.025 µg/mL (≈ 0.0571 µM); in assay [3] it was 1.56 µg/mL (≈ 3.57 µM); in assay [4] it was 3.13 µg/mL (≈ 7.15 µM); in assay [6] it was 3.13 µg/mL (≈ 7.15 µM); in assay [7], under 0.006 µg/mL; in assay [8], 1.56 µg/mL (≈ 3.57 µM). In assay [5], this compound yielded an Epileptogenicity of 3.

Compound `C[C@@H](O)[C@H]1C(=O)N2C(C(=O)O)=C(S[C@@H]3CN[C@@H](c4ccc(CCN)cc4)C3)[C@H](C)[C@H]12` displayed a Susceptibility in assay [1] of 0.26. In addition, the MIC in assay [2] was 0.025 µg/mL (≈ 0.0579 µM); in assay [3] it was 0.78 µg/mL (≈ 1.81 µM); in assay [4], 6.25 µg/mL (≈ 14.5 µM); in assay [6] it was 3.13 µg/mL (≈ 7.25 µM); in assay [7] it was under 0.006 µg/mL; in assay [8] it was 1.56 µg/mL (≈ 3.61 µM). The Epileptogenicity in assay [5] is on record as 3.

In turn, `C[C@@H](O)[C@H]1C(=O)N2C(C(=O)O)=C(S[C@@H]3CN[C@@H](c4ccc(C(C)(C)N)cc4)C3)[C@H](C)[C@H]12` registered a Susceptibility in assay [1] of 0.37. Also, the MIC in assay [2] is 0.05 µg/mL (≈ 0.112 µM); in assay [3], 1.56 µg/mL (≈ 3.5 µM); in assay [4], 6.25 µg/mL (≈ 14 µM); in assay [6], 1.56 µg/mL (≈ 3.5 µM); in assay [7], under 0.006 µg/mL; in assay [8], 1.56 µg/mL (≈ 3.5 µM). The Epileptogenicity in assay [5] is reported as 0.

The record behind these values is ChEMBL document CHEMBL1132752, “Structure-activity relationships of trans-3,5-disubstituted pyrrolidinylthio-1beta-methylcarbapenems. Part 2: J-111,225, J-114,870, J-114,871 and related compounds” (2000).
